Measured values from patent publication US5972698A, “Tryptase inhibitor” (Novartis Corporation, priority 1993, dated 1999).
*1 amine or outer side, *2 acyl side, *3 side chain or, on linkers, in order; H or OH if unused. Where a SMILES comes first, the peptide text is derived from it. CO = O=C([*:1])[*:2]

Assays:
[1] = molecular target: Human tryptase; settings: cited from earlier work
[2] = Isoelectric focussing (PhastSystem); format: physicochemical
Protocol: a) SDS-PAGE and isoelectric focussing (IEF) SDS-PAGEs of the proteins were performed with 15-25% polyacrylamide gels following the procedure of Laemmli [Laemmli, 1970]. The gels were either self-prepared and run in a conventional apparatus or in the PhastSystem (Pharmacia, Sollentuna, Sweden). Isoelectric focussing was also done with the PhastSystem using the isoelectric focussing calibration kit pH 3-10.

[3] = molecular target: Tryptase (human); assay: Inhibition of the amidolytic activity of tryptase / equilibrium dissociation constants (Ki); format: biochemical
Protocol: h) Inhibitory activity: During the purification procedure the inhibitor was followed by measurements of its effect on the amidolytic activity of tryptase. Therefore, samples were incubated with tryptase (0.59 nM) in 50 mM Tris/HCl (pH 7.6), 150 mM NaCl, 50 μg/ml bovine lung heparin, and 0.1% (w/v) bovine serum albumin for 25 min at 37° C. The assay was started by addition of the substrate tos-Gly-Pro-Arg-pNa at a final concentration of 0.1 mM. The released nitroaniline was monitored spectrometrically at 405 nm for 3.5 min using a UVIKON 930 photometer (Kontron; Eching, Germany).
k) Determination of equilibrium constants: To determine the specificity of the inhibitor, its effect on the amidolytic activity of various serine proteinases (see Tab. 5) was determined. […] The residual enzyme activity was measured after addition of a suitable substrate.
Equilibrium dissociation constants (Ki) for the complexes of the inhibitor with individual proteases were determined essentially as described by Bieth [Bieth, 1980]. Briefly, increasing concentrations of the inhibitor were incubated with a constant concentration of the enzyme; the time necessary to reach equilibration of the enzyme-inhibitor complex was determined for each protease in preliminary experiments. Substrate was then added, and the residual enzyme activity measured. […]

Molecule	inhibition of tryptase (literature) [1]	further results
CC(=O)N[C@@H](CC(C)C)C(=O)N[C@@H](CC(C)C)C(=O)N[C@H](C=O)CCCNC(=N)N [leupeptin]		Ki values for the complexes with tryptase (literature) [1]: micromolar range
C1 -esterase inhibitor: naturally occurring antiproteinase	not inhibited	
antithrombin III	not inhibited	
alpha2 -macroglobulin: naturally occurring antiproteinase	not inhibited	
O=S(=O)(F)Cc1ccccc1 [phenylmethylsulfonyl fluoride]	inhibited	
tosyl-L-lysine chloromethyl ketone	inhibited	
rLDTI-C: recombinant form C inhibitor expressed in Saccharomyces cerevisiae with secretion vector pVT102U/alpha and strain S-78 (KKVCACPKILKPVCGSDGRTYANSCIARCNGVSIKSEGSCPTGILN)		isoelectric point [2]: > 10 pH; Ki ([3]; Ki for the inhibition of two of the four subunits of the tryptase-tetramer, substrate Tos-Gly-Pro-Arg-pNA, read-out: Ki (second Ki column)): 1.9 nM; maximal inhibition of human tryptase ([3]; substrate tos-Gly-Pro-Arg-pNa): ~ 50%
hirudin	not affected	
CC(C)[C@H](NC(=O)[C@H](CCCNC(=N)N)NC(=O)N[C@@H](Cc1ccccc1)C(=O)O)C(=O)N[C@H](C=O)CCCNC(=N)N [antipain] ({Phe-CO}-Arg-Val-Arg-aldehyde)		Ki values for the complexes with tryptase (literature) [1]: micromolar range
aprotinin	not affected	
alpha1 -proteinase inhibitor: naturally occurring antiproteinase	not inhibited	
ecotin: proteinase inhibitor	not affected	
